Reference: patent US12391680B2, “Compounds and compositions for the treatment of cystic fibrosis” (FONDAZIONE ISTITUTO ITALIANO DI TECNOLOGIA, priority 2019, dated 2025)
pEC50: −log10 of the molar value.

molecular target: mutant CFTR (Homo sapiens, UniProt P13569); assay: Fluorescence assay for CFTR activity (halide-sensitive YFP, HS-YFP); type: cell-based; details: CFBE41o- and FRT cells with stable expression of mutant CFTR
Description: Mutant CFTR activity was determined with the functional assay based on the halide-sensitive yellow fluorescent protein, HS—YFP (Galietta et al., FEBS Lett 499:220-224, 2001). CFBE41o- and FRT cells with stable expression of mutant CFTR and HS—YFP were plated on clear-bottom 96-well black microplates (Code 3603, Corning Life Sciences) at a density of 50,000 cells/well and kept at 37° C. in 5% CO2 for 24 hours.
For the corrector assay, cells were treated for further 24 hours with test compounds, vehicle (DMSO), or the positive control VX-809. After treatment, the culture medium was removed and cells in each well were stimulated for 30 min at 37° C. with 60 μL PBS (containing 137 mM NaCl, 2.7 mM KCl, 8.1 mM Na2HPO4, 1.5 mM KH2PO4, 1 mM CaCl2, and 0.5 mM MgCl2) plus forskolin (20 μM) and genistein (50 μM).
For determination of potentiator activity on F508del-CFTR, cells were incubated for 24 hours at 27° C. to allow trafficking of the mutant protein to plasma membrane. Cells were then stimulated with for 30 min with PBS containing forskolin (20 μM) plus the compound to be tested at the desired concentration. For determination of potentiator activity on G551D-CFTR or G1349D-CFTR, cells were directly stimulated with forskolin plus test compound without previous incubation at low temperature. At the time of assay, microplates carrying CFBE41o- or FRT cells were transferred to microplate readers (BMG Labtech) equipped with high-quality excitation (HQ500/20×: 500±10 nm) and emission (HQ535/30M: 535±15 nm) filters for YFP (Chroma Technology). The assay consisted of a continuous 14 s fluorescence reading with 2 s before and 12 s after injection of an iodide-containing solution (165 μL of a modified PBS containing I^− instead of Cl^−; final I^− concentration in the well: 100 mM). Data were normalized to the initial background-subtracted fluorescence. Enhanced CFTR activity, induced by correctors and/or potentiators, results in accelerated I^− influx that in turn causes faster HS—YFP quenching (Pedemonte et al., Mol Pharmacol 68:1736-1746, 2005; Pedemonte et al., J Clin Invest 115:2564-2571, […]). To determine fluorescence quenching rate associated with I^− influx, the final 10 s of data for each well were fitted with an exponential function to extrapolate initial slope (dF/dt).
EC50 obtained are illustrated in Table 1 wherein+: EC50>2 μM; ++: 1.0 μM <EC50<2 μM; +++: EC50<1 μM.

Sequence of mutant CFTR (P13569 with tags, fused parts or gaps DEL508-508): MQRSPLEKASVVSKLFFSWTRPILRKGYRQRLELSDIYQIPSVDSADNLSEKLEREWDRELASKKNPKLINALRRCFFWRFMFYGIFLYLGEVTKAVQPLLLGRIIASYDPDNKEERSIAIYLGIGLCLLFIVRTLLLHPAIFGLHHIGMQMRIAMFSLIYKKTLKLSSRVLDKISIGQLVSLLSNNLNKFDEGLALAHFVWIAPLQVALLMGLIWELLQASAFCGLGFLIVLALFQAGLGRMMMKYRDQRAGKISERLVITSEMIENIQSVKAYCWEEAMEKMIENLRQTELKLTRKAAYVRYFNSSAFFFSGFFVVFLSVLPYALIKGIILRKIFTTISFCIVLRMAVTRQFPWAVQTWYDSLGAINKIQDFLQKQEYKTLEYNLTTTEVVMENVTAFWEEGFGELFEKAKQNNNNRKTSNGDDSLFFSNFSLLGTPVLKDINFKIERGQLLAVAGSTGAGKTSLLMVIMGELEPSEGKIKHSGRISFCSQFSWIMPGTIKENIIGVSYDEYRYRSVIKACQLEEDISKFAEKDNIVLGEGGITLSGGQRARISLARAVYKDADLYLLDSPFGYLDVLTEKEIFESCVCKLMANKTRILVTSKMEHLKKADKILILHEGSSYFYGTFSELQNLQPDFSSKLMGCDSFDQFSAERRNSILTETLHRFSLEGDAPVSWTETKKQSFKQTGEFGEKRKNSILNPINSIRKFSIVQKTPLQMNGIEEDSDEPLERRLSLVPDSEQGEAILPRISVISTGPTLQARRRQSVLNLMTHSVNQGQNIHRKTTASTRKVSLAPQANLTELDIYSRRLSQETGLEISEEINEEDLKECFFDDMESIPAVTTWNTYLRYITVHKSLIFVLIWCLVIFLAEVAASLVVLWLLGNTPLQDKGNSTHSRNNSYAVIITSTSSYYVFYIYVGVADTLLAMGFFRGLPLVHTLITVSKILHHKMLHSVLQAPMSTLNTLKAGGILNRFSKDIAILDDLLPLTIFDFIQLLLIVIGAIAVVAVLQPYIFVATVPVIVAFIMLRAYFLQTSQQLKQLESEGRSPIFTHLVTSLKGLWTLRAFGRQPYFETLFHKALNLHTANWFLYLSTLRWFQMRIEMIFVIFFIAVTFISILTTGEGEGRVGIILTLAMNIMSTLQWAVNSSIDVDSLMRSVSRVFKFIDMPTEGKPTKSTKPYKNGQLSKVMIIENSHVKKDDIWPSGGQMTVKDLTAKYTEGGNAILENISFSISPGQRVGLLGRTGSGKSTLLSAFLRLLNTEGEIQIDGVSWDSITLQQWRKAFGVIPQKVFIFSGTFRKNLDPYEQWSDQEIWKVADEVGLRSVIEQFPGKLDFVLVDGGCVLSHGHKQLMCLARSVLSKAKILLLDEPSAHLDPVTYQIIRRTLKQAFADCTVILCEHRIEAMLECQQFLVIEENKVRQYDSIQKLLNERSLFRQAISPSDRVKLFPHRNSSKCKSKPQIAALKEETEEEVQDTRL

Row | pEC50 | SMILES
1 | < 5.70 | Cc1n[nH]c(C)c1S(=O)(=O)N1CCOC(c2c(C(=O)N(C)C)sc3ccccc23)C1 (centres unmarked) [compound 083, 3-{4-[(3,5-dimethyl-1H-pyrazol-4-yl)sulfonyl]-2-morpholinyl}-N,N-dimethyl-1-benzothiophene-2-carboxamide]
2 | < 5.70 | NC(=O)c1sc2ccccc2c1C1CN(S(=O)(=O)c2ccc3ccccc3c2)CCO1 (racemic) [compound 052, rac-3-[4-(2-naphthylsulfonyl)morpholin-2-yl]benzothiophene-2-carboxamide]
3 | < 5.70 | NC(=O)c1sc2ccccc2c1C1CN(S(=O)(=O)C2CCCCC2)CCO1 (racemic) [compound 016, rac-3-[4-cyclohexylsulfonylmorpholin-2-yl]benzothiophene-2-carboxamide]
4 | < 5.70 | NC(=O)c1sc2ccccc2c1C1CN(S(=O)(=O)c2ccc([N+](=O)[O-])cc2)CCO1 (racemic) [compound 065, rac-3-[4-(4-nitrophenyl)sulfonylmorpholin-2-yl]benzothiophene-2-carboxamide]
5 | < 5.70 | NC(=O)c1sc2ccccc2c1C1CN(S(=O)(=O)c2ccccc2OC(F)(F)F)CCO1 (racemic) [compound 067, rac-3-[4-[2-(trifluoromethoxy)phenyl]sulfonylmorpholin-2-yl]benzothiophene-2-carboxamide]
6 | < 5.70 | NC(=O)c1sc2ccccc2c1[C@H]1CN(S(=O)(=O)c2ccc(C(F)(F)F)c(F)c2)CCO1 (single isomer, unassigned) [compound 055]
7 | < 5.70 | Cc1noc(C)c1S(=O)(=O)N1CCOC(c2c(C(N)=O)sc3ccccc23)C1 (racemic) [compound 008, rac-3-[4-(3,5-dimethylisoxazol-4-yl)sulfonylmorpholin-2-yl]benzothiophene-2-carboxamide]
8 | < 5.70 | CNC(=O)c1sc2ccccc2c1C1CN(S(=O)(=O)C2CCCC2)CCO1 (centres unmarked) [compound 081, 3-(4-cyclopentanesulfonyl-morpholin-2-yl)-benzo[b]thiophene-2-carboxylic acid methylamide]
9 | > 6.00 | CC(C)Oc1ccc(S(=O)(=O)N2CCOC(c3c(C(N)=O)sc4ccccc34)C2)cc1 (racemic) [compound 069, rac-3-[4-(4-isopropoxyphenyl)sulfonylmorpholin-2-yl]benzothiophene-2-carboxamide]
10 | < 5.70 | CC(C)(C)OC(=O)N1CCC(S(=O)(=O)N2CCOC(c3c(C(N)=O)sc4ccccc34)C2)CC1 (racemic) [compound 064, rac-tert-butyl 4-[2-(2-carbamoylbenzothiophen-3-yl)morpholin-4-yl]sulfonylpiperidine-1-carboxylate]
11 | > 6.00 | COc1ccc(S(=O)(=O)N2CCOC(c3c(C(N)=O)sc4ccccc34)C2)cc1C(F)(F)F (racemic) [compound 046, rac-3-[4-[4-methoxy-3-(trifluoromethyl)phenyl]sulfonylmorpholin-2-yl]benzothiophene-2-carboxamide]
12 | < 5.70 | CNC(=O)c1sc2ccccc2c1C1CN(S(=O)(=O)c2c(C)noc2C)CCO1 (centres unmarked) [compound 075, 3-[4-(3,5-dimethyl-isoxazole-4-sulfonyl)-morpholin-2-yl]-benzo[b]thiophene-2-carboxylic acid methylamide]
13 | 5.70 to 6.00 | NC(=O)c1sc2ccccc2c1C1CN(S(=O)(=O)c2cccc(F)c2)CCO1 (racemic) [compound 020, rac-3-[4-(3-fluorophenyl)sulfonylmorpholin-2-yl]benzothiophene-2-carboxamide]
14 | > 6.00 | NC(=O)c1sc2ccccc2c1C1CN(S(=O)(=O)c2cccc(C(F)(F)F)c2)CCO1 (racemic) [compound 035, rac-3-[4-[3-(trifluoromethyl)phenyl]sulfonylmorpholin-2-yl]benzothiophene-2-carboxamide]
15 | < 5.70 | COc1ccc(Oc2ccc(S(=O)(=O)N3CCOC(c4c(C(N)=O)sc5ccccc45)C3)cc2)cc1 (racemic) [compound 019, rac-3-[4-[4-(4-methoxyphenoxy)phenyl]sulfonylmorpholin-2-yl]benzothiophene-2-carboxamide]
16 | < 5.70 | Cc1cc(S(=O)(=O)N2CCO[C@@H](c3c(C(N)=O)sc4ccccc34)C2)ccc1F (single isomer, unassigned) [compound 014]
17 | < 5.70 | Cc1nc2ccc(S(=O)(=O)N3CCO[C@@H](c4c(C(N)=O)sc5ccccc45)C3)cc2o1 (single isomer, unassigned) [compound 070]
18 | > 6.00 | NC(=O)c1sc2ccccc2c1C1CN(S(=O)(=O)c2ccc(C(F)(F)F)c(F)c2)CCO1 (single isomer, unassigned) [compound 056]
19 | < 5.70 | CN(C)C(=O)c1sc2ccccc2c1C1CN(S(=O)(=O)C2CCCC2)CCO1 (centres unmarked) [compound 078, 3-[4-(cyclopentylsulfonyl)-2-morpholinyl]-N,N-dimethyl-1-benzothiophene-2-carboxamide]
20 | < 5.70 | Cc1cc(S(=O)(=O)N2CCOC(c3c(C(=O)NCCO)sc4ccccc34)C2)ccc1F (racemic) [compound 029, rac-3-[4-(4-fluoro-3-methyl-phenyl)sulfonylmorpholin-2-yl]-N-(2-hydroxyethyl)benzothiophene-2-carboxamide]
21 | < 5.70 | NC(=O)c1sc2ccccc2c1C1CN(S(=O)(=O)c2ccccc2)CCO1 (racemic) [compound 003, rac-3-[4-(benzenesulfonyl)morpholin-2-yl]benzothiophene-2-carboxamide]
22 | < 5.70 | N#Cc1ccc(S(=O)(=O)N2CCOC(c3c(C(N)=O)sc4ccccc34)C2)cc1 (racemic) [compound 037, rac-3-[4-(4-cyanophenyl)sulfonylmorpholin-2-yl]benzothiophene-2-carboxamide]
23 | < 5.70 | O=C(NCCO)c1sc2ccccc2c1C1CN(S(=O)(=O)c2ccccc2)CCO1 (centres unmarked) [compound 080, N-(2-hydroxyethyl)-3-[4-(phenylsulfonyl)-2-morpholinyl]-1-benzothiophene-2-carboxamide]
24 | > 6.00 | Cc1ccc(S(=O)(=O)N2CCOC(c3c(C(N)=O)sc4ccccc34)C2)cc1F (racemic) [compound 026, rac-3-[4-(3-fluoro-4-methyl-phenyl)sulfonylmorpholin-2-yl]benzothiophene-2-carboxamide]
25 | < 5.70 | Cc1cc(S(=O)(=O)N2CCOC(c3c(C(=O)N(C)C)sc4ccccc34)C2)ccc1F (racemic) [compound 025, rac-3-[4-(4-fluoro-3-methyl-phenyl)sulfonylmorpholin-2-yl]-N,N-dimethyl-benzothiophene-2-carboxamide]
26 | < 5.70 | NC(=O)c1sc2ccccc2c1C1CN(S(=O)(=O)c2ccsc2)CCO1 (racemic) [compound 005, rac-3-[4-(3-thienylsulfonyl)morpholin-2-yl]benzothiophene-2-carboxamide]
27 | < 5.70 | CC(C)NC(=O)c1sc2ccccc2c1C1CN(S(=O)(=O)c2cnn(C)c2)CCO1 (centres unmarked) [compound 076, 3-[4-(1-methyl-1H-pyrazole-4-sulfonyl)-morpholin-2-yl]-benzo[b]thiophene-2-carboxylic acid isopropylamide]
28 | < 5.70 | Cc1ccc(S(=O)(=O)N2CCO[C@@H](c3c(C(N)=O)sc4ccccc34)C2)cc1F (single isomer, unassigned) [compound 072]
29 | < 5.70 | COc1ccccc1S(=O)(=O)N1CCOC(c2c(C(N)=O)sc3ccccc23)C1 (racemic) [compound 050, rac-3-[4-(2-methoxyphenyl)sulfonylmorpholin-2-yl]benzothiophene-2-carboxamide]
